Data published in US4867737A, “Derivatives of 4-phenyl-4-oxo-2-butenoic acid their preparation process, their use as medicaments and compositions containing them” (Roussel UCLAF, priority 1986, dated 1989).

Tests used:
[1] = system: total acidity of the gastric secretions; assay: Anti-gastric secretory activity (pylorus ligature, Shay technique); assay type: in vivo, rat; conditions: male rats, intraduodenal, 10 mg/kg, 3 hours
Description: (1) Determination of the anti-gastric secretory activity.
The technique used is described by H. SHAY et al in Gastroenterology 5, 43, 1945.
Male rats are used weighing about 200 g (10 animals per group), deprived of nourishment for 48 hours, but having as much as desired of an 8% glucose solution. The pylorus of the rats is ligatured, the rats having been lightly anesthetized with ether. Then, at the end of the operation, the compounds under test are administered at various doses, or for the control animals, a 0.5% carboxymethyl cellulose solution is administered by intraduodenal route. Then the abdominal incision is sutured.
Three hours later, the animals are killed and their stomachs are removed after ligature of the oesophagus. The gastric juice is removed and centrifuged. Then the volume is measured; and on 100 μl of gastric juice, the total acidity is determined by titration at pH 7 with N/10 sodium hydroxide.
The percentages of variation of total acidity of the gastric secretions are calculated in relation to the results obtained with the control animals.

[2] = system: ulcers in the stomachs of the rats; assay: Anti-ulcer activity, ulcer from stress (constraint and cold); assay type: in vivo, rat; conditions: female rats, by probang, 10 mg/kg
Description: (2) Determination of anti-ulcer activity
The technique consists of inducing ulcers in the stomachs of the rats through stress (constraint and cold.)
The technique used is described by E. C. SENAY and R. J. LEVINE, Proc. Soc. Exp. Biol. 124, 1221 (1967).
Female rats weighing 150 g are used (5 animals per group), starved for 48 hours with water "ad libitum" and glucose solution for 8 hours. The animals receive the product under test by a probang, or the control animals receive a 0.5% carboxymethyl cellulose solution.
Two hours later, the animals are wrapped up in a wire-netting jacket, their paws are bound and the whole is placed in a refrigerator at 8° C. for two hours. The rats are freed and killed with ether.
Their stomachs are removed, opened along the greater curvature and examined by means of a binocular magnifier; the seriousness of the lesions is rated from 0 to 3 for each stomach.
For each group of rats the average intensity of the ulcerations is calculated, then for each group the degree of ulceration in relation to the controls is determined.
Product 1 is the product of Example 1; Product p is the product of Example 1 of U.S. Pat. No. 4,473,583.

[3] = Acute toxicity (LD50), oral route; conditions: in vivo, mouse
Description: (3) Determination of actute toxicity
The lethal dose 50 (LD50) was evaluated after administration of the products by oral route to a mouse.

SMILES	Anti-secretory activity: Acid Concentration (% variation in relation to the controls) [1]	Anti-ulcer activity: Ulceration (% variation in relation to the controls) [2]	LD50 [3]
COc1ccccc1C(=O)/C=C/C(=O)O [Product 1, (E) 4-(2-methoxyphenyl)-4-oxo-2-butenoic acid]	-78%	-80%	370 mg/kg
O=C(O)C=CC(=O)c1ccccc1 [p]	-66%	-54%	250 mg/kg
